Measurements published in patent US6288104A, “Pharmaceutical compositions containing mesembrine and related compounds” (African Natural Health CC, priority 1996, dated 2001).
Where “and” joins values, the source holds several entries; their conditions need not be identical. Identical values can stand only once. Entries after “also recorded” stand apart in the source; their conditions may differ.

Tests used:
healthy adult volunteers = assay: Study 2: single sublingual dose of pure (-)-mesembrine in healthy adult volunteers; format: in vivo; details: single 200 microgram sublingual dose in 1 ml of 60% ethanol
Method: Various […] studies of the effects of the compounds of the invention were carried out in adult volunteers as follows:
Study 2. N=2 Healthy Adult Volunteers, All Health Professionals Sep. 21, 1996.

Serotonin-uptake = Serotonin-uptake (Homo sapiens, UniProt P31645); assay: Novascreen serotonin-uptake assay, with reference to imipramine HCl; format: biochemical; details: for serotonin-uptake inhibition (in words): FIGS. 1 to 4, comparison with imipramine HCl
Sequence of Serotonin-uptake (P31645 whole entry): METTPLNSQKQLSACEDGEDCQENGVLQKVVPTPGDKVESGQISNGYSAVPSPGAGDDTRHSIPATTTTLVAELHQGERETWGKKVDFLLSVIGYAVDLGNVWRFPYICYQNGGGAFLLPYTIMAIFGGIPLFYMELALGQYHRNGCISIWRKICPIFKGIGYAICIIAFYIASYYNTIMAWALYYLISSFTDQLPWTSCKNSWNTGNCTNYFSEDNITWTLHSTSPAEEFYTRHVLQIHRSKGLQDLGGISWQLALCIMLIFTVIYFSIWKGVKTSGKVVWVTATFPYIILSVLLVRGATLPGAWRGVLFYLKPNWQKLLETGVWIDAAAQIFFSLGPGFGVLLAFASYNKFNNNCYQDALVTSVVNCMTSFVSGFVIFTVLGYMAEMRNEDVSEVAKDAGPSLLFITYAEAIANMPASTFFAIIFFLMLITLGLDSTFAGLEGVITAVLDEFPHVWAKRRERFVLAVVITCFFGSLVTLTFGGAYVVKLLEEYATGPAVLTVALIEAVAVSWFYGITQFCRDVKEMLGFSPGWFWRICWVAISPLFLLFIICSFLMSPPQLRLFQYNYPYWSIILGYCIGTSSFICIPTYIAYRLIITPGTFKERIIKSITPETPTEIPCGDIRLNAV
Source text: FIG. 2 is a graph for a serotonin-uptake assay of a whole plant extract of a plant from the family Mesembryanthemaceae, identified by the code number 18639, as well as some comparisons with the known serotonin-uptake inhibitor imipramine HCl;
FIG. 3 is a graph for a serotonin-uptake assay for mesembranol, identified by the code number 18623, as well as some comparisons with the known serotonin-uptake inhibitor imipramine HCl; and
FIG. 4 is a graph for a serotonin-uptake assay for mesembranone, identified by the code number 18622, as well as some comparisons with the known serotonin-uptake inhibitor imipramine HCl.
In addition, the whole plant extract of Sceletium N.E.Br., mesembranol and mesembranone were screened for biological activity by the National Institute of Mental Health in the United States of America through the contract with Novascreen.

GABA B = assay: Novascreen GABA B receptor screen; format: binding; details: Average: N = 2; Concentration 5,0E1

Compound	Anxiolytic effect (healthy adult volunteers; N=2)	Duration of anxiolytic action (healthy adult volunteers; N=2)	Sustained elevation of mood (healthy adult volunteers; N=2)	Duration of sustained elevation of mood (healthy adult volunteers; N=2, individual volunteers)	Onset of action (healthy adult volunteers; N=2, individual volunteers)	Percent Inhibition, Serotonin-uptake (Serotonin-uptake; Average: N = 2, Concentration 5,0E1)	serotonin-uptake inhibition (in words) (Serotonin-uptake)	Percent Inhibition, GABA B (GABA B)
COc1ccc(C23CCC(=O)CC2N(C)CC3)cc1OC (single isomer, unassigned; (-)) [(-)-mesembrine, 3a-(3,4-dimethoxyphenyl)-octahydro-1-methyl-6H-indol-6-one]	noted by both	five hours to eight hours	noted by both	approximately eight; also recorded: eleven	7 min and 12 min	96,5%	highly potent serotonin-uptake inhibitor	-0,6%
COc1ccc(C23CCC(O)CC2N(C)CC3)cc1OC (stereo not shown) [mesembranol]	–	–	–	–	–	–	highly potent serotonin-uptake inhibitors	–
COc1ccc(C23C=CC(=O)CC2N(C)CC3)cc1OC (stereo not shown) [mesembranone]	–	–	–	–	–	–	highly potent serotonin-uptake inhibitors	–
